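How tested: cells in 96-well plates exposed to compound for 48 hours at five concentrations. TGI: concentration producing complete growth inhibition.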
Experiments:
Assay in all cases: NCI anticancer screen, dose series, 48 h
786-0 renal = test system: 786-0 renal
A498 renal = test system: A498 renal
A549 NSCLC = test system: A549 NSCLC
ACHN renal = test system: ACHN renal
BT-549 breast = test system: BT-549 breast
CAKI-1 renal = test system: CAKI-1 renal
CCRF-CEM leukemia = test system: CCRF-CEM leukemia
COLO 205 colon = test system: COLO 205 colon
DU-145 prostate = test system: DU-145 prostate
EKVX NSCLC = test system: EKVX NSCLC
HCC-2998 colon = test system: HCC-2998 colon
HCT-116 colon = test system: HCT-116 colon
HCT-15 colon = test system: HCT-15 colon
HL-60(TB) leukemia = test system: HL-60(TB) leukemia
HOP-62 NSCLC = test system: HOP-62 NSCLC
HOP-92 NSCLC = test system: HOP-92 NSCLC
HS 578T breast = test system: HS 578T breast
HT29 colon = test system: HT29 colon
IGROV1 ovarian = test system: IGROV1 ovarian
K-562 leukemia = test system: K-562 leukemia
KM12 colon = test system: KM12 colon
LOX IMVI melanoma = test system: LOX IMVI melanoma
M14 melanoma = test system: M14 melanoma
MALME-3M melanoma = test system: MALME-3M melanoma
MCF7 breast = test system: MCF7 breast
MDA-MB-231 breast = test system: MDA-MB-231 breast
MDA-MB-435 = test system: MDA-MB-435
MDA-N = test system: MDA-N
MOLT-4 leukemia = test system: MOLT-4 leukemia
NCI-H226 lung = test system: NCI-H226 lung
NCI-H23 lung = test system: NCI-H23 lung
NCI-H460 lung = test system: NCI-H460 lung
NCI-H522 lung = test system: NCI-H522 lung
NCI/ADR-RES ovarian = test system: NCI/ADR-RES ovarian
OVCAR-3 ovarian = test system: OVCAR-3 ovarian
OVCAR-4 ovarian = test system: OVCAR-4 ovarian
OVCAR-5 ovarian = test system: OVCAR-5 ovarian
OVCAR-8 ovarian = test system: OVCAR-8 ovarian
PC-3 prostate = test system: PC-3 prostate
RPMI-8226 leukemia = test system: RPMI-8226 leukemia
RXF 393 renal = test system: RXF 393 renal
SF-268 CNS = test system: SF-268 CNS
SF-295 CNS = test system: SF-295 CNS
SF-539 CNS = test system: SF-539 CNS
SK-MEL-2 melanoma = test system: SK-MEL-2 melanoma
SK-MEL-28 melanoma = test system: SK-MEL-28 melanoma
SK-MEL-5 melanoma = test system: SK-MEL-5 melanoma
SK-OV-3 ovarian = test system: SK-OV-3 ovarian
SN12C renal = test system: SN12C renal
SNB-19 CNS = test system: SNB-19 CNS
SNB-75 CNS = test system: SNB-75 CNS
SR leukemia = test system: SR leukemia
SW-620 colon = test system: SW-620 colon
T-47D breast = test system: T-47D breast
TK-10 renal = test system: TK-10 renal
U251 CNS = test system: U251 CNS
UACC-257 melanoma = test system: UACC-257 melanoma
UACC-62 melanoma = test system: UACC-62 melanoma
UO-31 renal = test system: UO-31 renal

Measured: TGI

COc1ccc2c(c1)OC(c1cccnc1)C(c1ccccc1)C2=O (stereo not drawn)
> 100 µM: 786-0 renal | A498 renal | A549 NSCLC | ACHN renal | BT-549 breast | CAKI-1 renal | CCRF-CEM leukemia | COLO 205 colon | DU-145 prostate | EKVX NSCLC | HCC-2998 colon | HCT-116 colon | HCT-15 colon | HL-60(TB) leukemia | HOP-62 NSCLC | HOP-92 NSCLC | HS 578T breast | HT29 colon | IGROV1 ovarian | K-562 leukemia | KM12 colon | LOX IMVI melanoma | M14 melanoma | MALME-3M melanoma | MCF7 breast | MDA-MB-231 breast | MDA-MB-435 | MDA-N | MOLT-4 leukemia | NCI-H226 lung | NCI-H23 lung | NCI-H460 lung | NCI-H522 lung | NCI/ADR-RES ovarian | OVCAR-3 ovarian | OVCAR-4 ovarian | OVCAR-5 ovarian | OVCAR-8 ovarian | PC-3 prostate | RPMI-8226 leukemia | RXF 393 renal | SF-268 CNS | SF-295 CNS | SF-539 CNS | SK-MEL-2 melanoma | SK-MEL-28 melanoma | SK-MEL-5 melanoma | SK-OV-3 ovarian | SN12C renal | SNB-19 CNS | SNB-75 CNS | SR leukemia | SW-620 colon | T-47D breast | TK-10 renal | U251 CNS | UACC-257 melanoma | UACC-62 melanoma | UO-31 renal

CC(C)(CN)CN
> 100 µM: 786-0 renal | A498 renal | A549 NSCLC | ACHN renal | BT-549 breast | CAKI-1 renal | CCRF-CEM leukemia | COLO 205 colon | DU-145 prostate | EKVX NSCLC | HCC-2998 colon | HCT-116 colon | HCT-15 colon | HL-60(TB) leukemia | HOP-62 NSCLC | HOP-92 NSCLC | HS 578T breast | HT29 colon | IGROV1 ovarian | K-562 leukemia | KM12 colon | LOX IMVI melanoma | M14 melanoma | MALME-3M melanoma | MCF7 breast | MDA-MB-231 breast | MDA-MB-435 | MDA-N | MOLT-4 leukemia | NCI-H226 lung | NCI-H23 lung | NCI-H460 lung | NCI-H522 lung | NCI/ADR-RES ovarian | OVCAR-3 ovarian | OVCAR-4 ovarian | OVCAR-5 ovarian | OVCAR-8 ovarian | PC-3 prostate | RPMI-8226 leukemia | RXF 393 renal | SF-268 CNS | SF-295 CNS | SF-539 CNS | SK-MEL-2 melanoma | SK-MEL-28 melanoma | SK-MEL-5 melanoma | SK-OV-3 ovarian | SN12C renal | SNB-19 CNS | SNB-75 CNS | SR leukemia | SW-620 colon | T-47D breast | TK-10 renal | U251 CNS | UACC-257 melanoma | UACC-62 melanoma | UO-31 renal

Reference: PubChem BioAssay (NCI)
